# Data as given in paper PMC3873602, “Atheroprotective Vaccination with MHC-II Restricted Peptides from ApoB-100” (Frontiers in Immunology, 2013).
# “Also recorded” adds a separate entry of the source. Read-outs that look alike come from different tables or passages of the source. Ends that are not written are not given here.
# T1: H-2 I-A^b (Mus musculus, UniProt P14434+P14483)
# T1 sequence (P14434 24-256): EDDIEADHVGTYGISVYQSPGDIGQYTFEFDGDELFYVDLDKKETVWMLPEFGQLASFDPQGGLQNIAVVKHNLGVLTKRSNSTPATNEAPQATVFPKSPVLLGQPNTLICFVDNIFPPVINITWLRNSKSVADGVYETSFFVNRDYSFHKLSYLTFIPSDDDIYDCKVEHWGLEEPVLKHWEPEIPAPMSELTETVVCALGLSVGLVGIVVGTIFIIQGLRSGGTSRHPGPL
# T1 sequence (P14483 28-265): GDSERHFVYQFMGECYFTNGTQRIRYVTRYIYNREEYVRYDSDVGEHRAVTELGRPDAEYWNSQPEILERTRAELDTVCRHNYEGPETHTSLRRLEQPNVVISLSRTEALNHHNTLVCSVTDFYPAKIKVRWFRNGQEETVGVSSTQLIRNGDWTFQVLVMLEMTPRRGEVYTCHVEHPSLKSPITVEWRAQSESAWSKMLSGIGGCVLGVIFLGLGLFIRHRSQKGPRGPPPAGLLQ
# Key:
# H-2 I-A^b [1] = molecular target: T1, H-2 I-A^b; assay: I-A^b binding affinity, competitive inhibition assay with purified MHC and radio-labeled ligand
# Method: We measured I-A^b binding affinity using a classical competitive inhibition assay utilizing purified MHC and high affinity radio-labeled I-A^b ligands ([39]). Their ability to displace the radio-labeled I-A^b ligand was measured, and an inhibitory concentration required to displace 50% of the radio-labeled ligand (IC50) was determined.
# A peptide can only be recognized by a CD4^+ helper T-cell if it is bound to MHC class II. Because Apoe^−/− mice are on a C57B/6 background, candidate epitopes must be able to bind to the Class II allele, I-A^b. Previously, it has been shown that I-A^b binding motifs can be predicted using algorithms based on the number of anchor residues and hydrophobicity ([36]–[38]). […] The binding affinity is reflected by the amount of peptide, in […], needed to inhibit binding of a standardized radio-labeled peptide by 50% (the IC50) ([39]).
# Apoe^−/− mice [2] = assay: Aortic root plaque quantification (Oil Red O) after 1× CFA + 4× IFA immunization; format: in vivo, mouse; conditions: female Apoe^−/− mice, 1× CFA + 4× IFA scheme, WD 13 weeks; vs adjuvant-only mice; N = 5
# Text: Eight-week-old female Apoe^−/− mice on C57BL/6 background were purchased from Jackson Laboratories (Bar Harbor, ME, USA). Mice were housed in a specific pathogen free environment and fed chow diet until 10 weeks of age. At 10 weeks of age, mice were started on WD (adjusted calories diet with 42% from fat, Harlan Labs Cat #: TD.88137, CA, USA) and remained on WD until sacrifice at 23 weeks old.
# Aortic root sections were examined as follows. Hearts were harvested, placed in Optimal Cutting Temperature medium (OCT, Electron Microscopy Sciences, Hatfield, PA, USA), and frozen at −80°C. Beginning at the first appearance of the tri-leaflet aortic valve, successive 5 μm transverse sections were made for a distance of 100 μm. From these, we analyzed every other section, for a total of 10 sections per root. Sections were then stained with Oil Red O and counter-stained with hematoxylin. Extent of atherosclerosis was then determined as the area involved on each section. To measure en face lesion formation, the whole aorta was carefully cleaned in situ and then the whole aorta pinned out after paraformaldehyde incubation at RT for at least 2 h. Staining for atherosclerotic plaque was performed by incubating samples in Sudan IV. Quantification was performed using ImagePro software (Media Cybernetics, Rockville, MD, USA). […]
# Apoe^−/− mice [3] = assay: Antibody titers in plasma by chemiluminescent enzyme immunoassay; format: in vivo, mouse; conditions: pooled plasma, chemiluminescent ELISA, 1:250 dilution
# Method: Antibody titers in plasma were determined by chemiluminescent enzyme immunoassay as previously described ([41]). In brief, white “U” bottom plates (Thermo Lab systems, USA) were coated with various antigens at 5 μg/mL in PBS for overnight incubation. Following blocking with 1% BSA-TBS serum was added in increasing dilutions and incubated at RT for 90 min. Bound antibodies levels were detected using appropriate alkaline phosphatase-conjugated secondary antibodies and a 50% aqueous solution of LumiPhos 530 (Lumigen, USA). Data are expressed as relative light units counted per 100 ms (RLU/100 ms).
# mice = conditions: human ApoB-100 B-cell epitope; cited from earlier work
# Text: Several studies have reported a protective effect of vaccination with LDL, or ox-LDL, on the development of atherosclerotic plaque ([23]–[25]). However, the mechanism by which these immunizations convey atheroprotection is an ongoing area of research. […] This was initially a promising hypothesis which subsequently led to the search for atheroprotective B-cell (antibody) epitopes. The discovery of such epitopes was first reported by ...
# I-Ab = I-Ab (Mus musculus, UniProt P14434+P14483); conditions: MHC Class II allele of Apoe^−/− and LDL-R^−/− mice; cited from earlier work
# Text: More recently, researchers have sought to describe the changes in cellular (rather than humoral) immunity that may result from immunization with B-cell epitopes from ApoB-100. Several recent papers have reported an increase in FoxP3^+ expressing TREGS in secondary lymphoid organs [spleens ([32]) and lymph nodes ([33])] after immunization of mice with P210. […] It is not known whether these TREGS are causally related to the atheroprotection that is observed.
# H-2 I-A^b [4] = molecular target: T1, H-2 I-A^b; conditions: known T-cell epitope for comparison; cited from earlier work
# Text: Because Apoe^−/− mice are on a C57B/6 background, candidate epitopes must be able to bind to the Class II allele, I-A^b. Previously, it has been shown that I-A^b binding motifs can be predicted using algorithms based on the number of anchor residues and hydrophobicity ([36]–[38]).
# H-2 I-A^b (mouse) = assay: radioligand binding; competitive inhibition assay: peptides displace a high affinity radio-labeled I-A^b ligand from purified MHC; (label) < (MHC) and IC50 ≥ (MHC), so that IC50 values approximate the true Kd
# [5] = Table 2, ApoB3501–3516- and ApoB978–993-related overlapping peptides, read-out: H-2 I-Ab (IC50 nM)
# [6] = Table 1, displacement of 50% of radio-labeled I-A^b ligand, purified MHC, IC50 approximates Kd
molecule,measurement,setting,value
C[C@H](NC(=O)CNC(=O)[C@@H](NC(=O)[C@@H](N)[C@@H](C)O)[C@@H](C)O)C(=O)N[C@@H](Cc1ccc(O)cc1)C(=O)N[C@@H](CO)C(=O)N[C@@H](CC(N)=O)C(=O)N[C@@H](C)C(=O)N[C@@H](CO)C(=O)N[C@@H](CO)C(=O)N[C@H](C(=O)N[C@@H](CCC(=O)O)C(=O)N[C@@H](CO)C(=O)N[C@@H](C)C(=O)N[C@@H](CO)C(=O)N[C@@H](Cc1ccc(O)cc1)C(=O)O)[C@@H](C)O,IC50,H-2 I-A^b [1]; [5],17 nM
"MEVGWYRSPFSRVVHLYRNGK [MOG35–55, irrelevant control peptide, myelin oligodendrocyte glycoprotein 35–55]","reduction in aortic sinus (aortic root) plaque development, ORO staining",Apoe^−/− mice [2],no significant decrease
same,antibody titers to ApoB3501–3516 or ApoB978–993 in mice immunized with irrelevant peptide,Apoe^−/− mice [3],no antibody titers
same,"IgG (IgG1, IgG2c) response to the immunizing peptide",Apoe^−/− mice [3]; vs 1× CFA + 4× IFA group,predominantly IgG2c response
NVYLNSKGTRSSVRLQ,IC50,H-2 I-A^b [1]; [5],907 nM
NNYALFLSPRAQQAS,IC50,H-2 I-A^b [1]; [6],1300 nM
KTTKQSFDLSVKAQYKKNKH [Peptide P210],atheroprotection after vaccination of mice,mice,40–60%
same,binding to I-Ab,I-Ab,does not bind; also recorded: not to bind to I-Ab
CC(C)C[C@H](NC(=O)[C@H](Cc1ccc(O)cc1)NC(=O)[C@@H](NC(=O)[C@H](CC(N)=O)NC(=O)[C@H](C)NC(=O)[C@H](CCC(=O)O)NC(=O)[C@H](CC(N)=O)NC(=O)[C@H](C)NC(=O)[C@@H](NC(=O)[C@H](CO)NC(=O)CNC(=O)[C@@H](N)CO)C(C)C)C(C)C)C(=O)N[C@@H](CC(N)=O)C(=O)N[C@@H](CO)C(=O)N[C@@H](CCCCN)C(=O)NCC(=O)O,IC50,H-2 I-A^b [1]; [5],172 nM
IALDDAKINFNEKLSQLQTY [Peptide P143],atheroprotection after vaccination of mice,mice,40–60%
GWYRSPFSRVVHLY [MOG38–51],IC50,H-2 I-A^b [4],354 nM
CC(C)C[C@H](NC(=O)[C@H](C)NC(=O)[C@H](Cc1ccc(O)cc1)NC(=O)[C@H](CC(C)C)NC(=O)[C@@H](NC(=O)[C@H](C)NC(=O)[C@H](CCCNC(=N)N)NC(=O)[C@@H](N)CO)[C@@H](C)O)C(=O)N[C@@H](CO)C(=O)N[C@@H](Cc1c[nH]cn1)C(=O)N[C@@H](C)C(=O)N[C@H](C(=O)N[C@@H](CC(N)=O)C(=O)N[C@@H](CO)C(=O)N[C@@H](Cc1ccc(O)cc1)C(=O)O)C(C)C,IC50,H-2 I-A^b [1]; [6],1370 nM
TRFKHLRKYTYNYEAESSS [Peptide P2],atheroprotection after vaccination of mice,mice,40–60%
SSTESASYYPLTGDTR,IC50,H-2 I-A^b [1]; [5],1260 nM
YENFAASNKLDVTFS,H-2 I-A^b (IC50 nM),H-2 I-A^b [1]; [6],∞
SFTKGNIKSSFLSQEY,IC50,H-2 I-A^b [1]; [5],1170 nM
HLEYVSSELRKSLQV,IC50,H-2 I-A^b [1]; [6],22200 nM
CC(C)C[C@H](NC(=O)[C@H](Cc1ccccc1)NC(=O)[C@H](CO)NC(=O)[C@@H](N)CO)C(=O)N[C@@H](CO)C(=O)N[C@@H](CCC(N)=O)C(=O)N[C@@H](CCC(=O)O)C(=O)N[C@@H](Cc1ccc(O)cc1)C(=O)N[C@@H](CO)C(=O)NCC(=O)N[C@@H](CO)C(=O)N[C@H](C(=O)N[C@@H](C)C(=O)N[C@@H](CC(N)=O)C(=O)N[C@@H](CCC(=O)O)C(=O)N[C@@H](C)C(=O)O)C(C)C,IC50,H-2 I-A^b [1]; [5],6.8 nM
HLEYVSSELRKSLQV [mouse ApoB-100 peptide 4054–4069],IC50,H-2 I-A^b (mouse),22200 nM
"SGSVANEANVYLNSKG [ApoB_(3501–3516)-related peptide, position 3505, 16 residues]",IC50,H-2 I-A^b (mouse),172 nM
NNYALFLSPRAQQAS [mouse ApoB-100 peptide 4505–4520],IC50,H-2 I-A^b (mouse),1300 nM
"SSTESASYYPLTGDTR [ApoB_(978–993)-related peptide, position 985, 16 residues]",IC50,H-2 I-A^b (mouse),1260 nM
"TTGAYSNASSTESASY [ApoB_(978–993)-related peptide, position 977, 16 residues]",IC50,H-2 I-A^b (mouse),17 nM
SRATLYALSHAVNSY [mouse ApoB-100 peptide 438–453],IC50,H-2 I-A^b (mouse),1370 nM
"SSFLSQEYSGSVANEA [ApoB_(3501–3516)-related peptide, position 3497, 16 residues]",IC50,H-2 I-A^b (mouse),6.8 nM
"SFTKGNIKSSFLSQEY [ApoB_(3501–3516)-related peptide, position 3489, 16 residues]",IC50,H-2 I-A^b (mouse),1170 nM
"NVYLNSKGTRSSVRLQ [ApoB_(3501–3516)-related peptide, position 3513, 16 residues]",IC50,H-2 I-A^b (mouse),907 nM
